As usually defined, the pIC50 is −log10 of the IC50, conventionally taken in molar units. Broadly, the microsomal CLint is the rate of metabolic loss divided by the concentration. The low end stands for slow turnover, the high end for rapid turnover.

Data on 14 compounds can be found in EP4725941A1, “ARYLAMIDE DERIVATIVE HAVING ANTITUMOR ACTIVITY” (priority 2020, dated 2021).

The target in one data set is T1, BRAF (Homo sapiens, UniProt P15056).
T1 construct: purchased Eurofins Genomics KK; (BRAF); Thermo Fisher Scientific Inc. (MEK1)
Kind of data set: BRAF-inhibiting activity, time-resolved fluorescence-fluorescence resonance energy transfer assay. The format is biochemical. How it is done: The BRAF-inhibiting activity of the compounds listed in Table 3 below was evaluated by the time-resolved fluorescence-fluorescence resonance energy transfer assay as described below.

A further data set has as its system A549. Kind of data set: Cell proliferation-inhibiting activity (ATP in viable cells, CellTiter-Glo), A549. Particulars: A549, 96 h; human lung cancer cells, 4 days; read-out: A549 IC50. The format is cell-based, human. On the technique in general: Cellular ATP, detected with luciferase, serves as a proxy for viable cell number.
The test system of a further data set is Calu-6. Kind of data set: Cell proliferation-inhibiting activity (ATP in viable cells, CellTiter-Glo), Calu-6. The format is cell-based, human. Particulars: Calu-6, 96 h; human lung cancer cells, 4 days; read-out: Calu-6 IC50.
The subject of a further data set is NCI-H2122. Kind of data set: Cell proliferation-inhibiting activity (ATP in viable cells, CellTiter-Glo), NCI-H2122. Particulars: NCI-H2122, 96 h; human lung cancer cells, 4 days; read-out: NCI-H2122 IC50. The format is cell-based, human.
Data set [1] in a line: Human liver microsome stability. The format is in vitro ADME. Particulars: human liver microsomes, pH 7.4. A general note: Microsomes from liver hold many membrane-bound enzymes, among them those of drug oxidation.
Data set [2] deals with T2, MEK1 (Homo sapiens, UniProt Q02750).
T2 construct: purchased Thermo Fisher Scientific Inc. (MEK1, CRAF); Carna Biosciences, Inc. (ERK2)
Kind of data set: MEK1-inhibiting activity, fluorescent polarization method (CRAF/MEK1/ERK2 cascade, IMAP). The format is biochemical.

Another data set deals with HCT-116. Kind of data set: HCT-116 growth-inhibiting activity. Particulars: Table 1, human cancer cells with RAS mutation. The format is cell-based.
For data set [3], the target named is T2, MEK1. Kind of data set: MEK1-inhibiting activity, fluorescent polarization method (CRAF/MEK1/ERK2 cascade, IMAP). The format is biochemical. Particulars: Table 3; read-out: MEK1 IC50. As for the experimental part:
The MEK1-inhibiting activity of the compounds listed in Table 3 below were evaluated by the fluorescent polarization method as described below.

A further data set has as its system Colo-205. Kind of data set: Colo-205 growth-inhibiting activity. The format is cell-based. The note with it: Table 1, human cancer cells with BRAF mutation.

Molecules are shown by their SMILES. pIC50: −log10 of the molar value. Like-named read-outs stand apart in the source and are kept apart here.

T2 sequence (Q02750 whole entry): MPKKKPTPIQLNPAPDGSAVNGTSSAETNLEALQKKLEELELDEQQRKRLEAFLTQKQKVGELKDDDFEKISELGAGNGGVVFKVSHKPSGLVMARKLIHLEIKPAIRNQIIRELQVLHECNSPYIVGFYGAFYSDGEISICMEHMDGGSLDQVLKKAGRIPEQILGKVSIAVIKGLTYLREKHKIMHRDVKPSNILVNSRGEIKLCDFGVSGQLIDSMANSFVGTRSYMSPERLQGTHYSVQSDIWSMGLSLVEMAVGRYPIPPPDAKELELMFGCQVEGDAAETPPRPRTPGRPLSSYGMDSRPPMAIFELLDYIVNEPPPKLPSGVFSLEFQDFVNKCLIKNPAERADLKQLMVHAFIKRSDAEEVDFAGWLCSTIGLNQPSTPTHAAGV
T1 sequence (P15056 417-766 limits assumed): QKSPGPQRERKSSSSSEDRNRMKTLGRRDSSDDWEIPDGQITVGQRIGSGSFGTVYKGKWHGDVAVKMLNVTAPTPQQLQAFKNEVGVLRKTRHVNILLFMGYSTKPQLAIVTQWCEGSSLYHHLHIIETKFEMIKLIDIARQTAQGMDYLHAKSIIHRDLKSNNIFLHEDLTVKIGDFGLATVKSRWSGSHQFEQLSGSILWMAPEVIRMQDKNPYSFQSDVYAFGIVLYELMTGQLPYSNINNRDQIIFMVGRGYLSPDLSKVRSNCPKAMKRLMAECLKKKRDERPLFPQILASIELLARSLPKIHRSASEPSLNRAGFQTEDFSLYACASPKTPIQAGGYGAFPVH

Regarding `CNS(=O)(=O)Nc1nccc(Cc2cc(C(N)=O)c(Nc3ccc(I)cc3F)cn2)c1F` [Compound L-1, 5-(2-Fluoro-4-iodoanilino)-2-[[3-fluoro-2-(methylsulfamoylamino)pyridin-4-yl]methyl]pyridine-4-carboxamide], the pIC50 is 8.70 on BRAF (Table 3; read-out: BRAF IC50); 7.68 with A549; 7.39 with Calu-6; 7.77 in the data set on NCI-H2122; 8.22 against MEK1 [2] (Table 3). Further, the microsomal CLint at 0.99 µM in [1] was 10 µL/min/mg.
`CNS(=O)(=O)Nc1nccc(Cc2cc(C(N)=O)c(Nc3ccc4sccc4c3F)c(F)c2F)c1F` [Compound H-3, 3,4-difluoro-2-[(4-fluoro-1-benzothiophen-5-yl)amino]-5-[[3-fluoro-2-(methylsulfamoylamino)pyridin-4-yl]methyl]benzamide]: the pIC50 was 8.40 on BRAF (Table 3; read-out: BRAF IC50) and 8.70 on MEK1 [2] (Table 3). The microsomal CLint at 0.99 µM in data set [1] is 149 µL/min/mg.
As for `CNS(C)(=O)=Nc1nccc(Cc2cc(C(N)=O)c(Nc3ccc(I)cc3F)c(F)c2F)c1F` (stereo not drawn) [Compound A-43, 3,4-Difluoro-2-(2-fluoro-4-iodoanilino)-5-[[3-fluoro-2-[[methyl-(methylamino)-oxo-λ6-sulfanylidene]amino]pyridin-4-yl]methyl]benzamide], the pIC50 on BRAF (Table 3; read-out: BRAF IC50) was 8.00; in the data set on A549, 8.70; in the data set on NCI-H2122 it was 7.89; on MEK1 [2] (Table 3), 7.39. This compound also returned a microsomal CLint at 0.99 µM in [1] of 37 µL/min/mg.
As for `CNS(=O)(=O)Nc1cccc(Cc2c(CC(=O)NOCCO)c3ccc(Oc4ncccn4)cc3oc2=O)c1F` [AA-2, 2-[3-[[2-Fluoro-3-(methylsulfamoylamino)phenyl]methyl]-2-oxo-7-pyrimidin-2-yloxychromen-4-yl]-N-(2-hydroxyethoxy)acetamide], the pIC50 was 5.66 on BRAF (Table 1; read-out: BRAF IC50), 4.35 in the data set on HCT-116 and less than 5.10 against MEK1 [2] (Table 1).
In the case of `CC(C)(C)ONC(=O)c1cc(Cc2ccnc(NS(=O)(=O)NC3CC3)c2F)c(F)c(F)c1Nc1ccc(I)cc1Cl` [Compound B-13, 2-(2-Chloro-4-iodoanilino)-5-[[2-(cyclopropylsulfamoylamino)-3-fluor opyridin-4-yl]methyl]-3,4-difluoro-N-[(2-methylpropan-2-yl)oxy]benzamide], the pIC50 was 7.89 on MEK1 [3]; 8.00 at BRAF (read-out: BRAF IC50; Table 3); 7.59 with A549; 7.47 with Calu-6; 7.85 with NCI-H2122. The microsomal CLint at 0.99 µM in [1] amounted to 66 µL/min/mg.
As for `NC(=O)c1cc(Cc2ccnc(NS(=O)(=O)NCC3CC3)c2F)c(F)c(F)c1Nc1ccc(I)cc1F` [Compound A-36], the pIC50 at MEK1 [3] was 7.13; at BRAF (read-out: BRAF IC50; Table 3) it was 8.30; with A549, 7.59; in the data set with Calu-6 it was 7.21; with NCI-H2122, 7.77. The same compound displayed a microsomal CLint at 0.99 µM in data set [1] of 18 µL/min/mg.
As to `CNS(=O)(=O)NCC(=O)N(Cc1cc(C(=O)NOCCO)c(Nc2ccc(I)cc2F)c(F)c1F)OC` [AA-1, 3,4-Difluoro-2-(2-fluoro-4-iodoanilino)-N-(2-hydroxyethoxy)-5-[[methoxy-[2-(methylsulfamoylamino)acetyl]amino]methyl]benzamide], the pIC50 was 8.52 on BRAF (Table 1; read-out: BRAF IC50), 8.70 with HCT-116, 9.40 in the data set on Colo-205 and 7.68 on MEK1 [2] (Table 1).
Consider `CNS(=O)(=O)Nc1nccc(Cc2cc(C(=O)NOCCOC)c(Nc3ccc(I)cc3F)c(F)c2F)c1F` [Compound B-2, 3,4-Difluoro-2-(2-fluoro-4-iodoanilino)-5-[[3-fluoro-2-(methylsulfamoylamino)pyridin-4-yl]methyl]-N-(2-methoxyethoxy)benzamide], for which the pIC50 on MEK1 [3] was 8.40; at BRAF (read-out: BRAF IC50; Table 3), 8.52; with A549 it was 9.00; with Calu-6 it was 8.15; in the data set on NCI-H2122 it was 9.00. Further, the microsomal CLint at 0.99 µM in data set [1] is 53 µL/min/mg.
With `CNS(=O)(=O)Nc1cccc(Cc2cc(C(=O)NC3CC3)c(Nc3ccc(I)cc3F)c(F)c2F)c1F` [Compound D-6, N-Cyclopropyl-3,4-difluoro-2-(2-fluoro-4-iodoanilino)-5-[[2-fluoro-3-(methylsulfamoylamino)phenyl]methyl]benzamide], the pIC50 at MEK1 [3] is 7.26; at BRAF (read-out: BRAF IC50; Table 3) it was 8.10; in the data set with A549, 8.10; in the data set on Calu-6, 7.62; in the data set on NCI-H2122 it was 8.70. The microsomal CLint at 0.99 µM in data set [1] was 34 µL/min/mg.
With `CC1(S(=O)(=O)Nc2cccc(Cc3cc(C(N)=O)c(Nc4ccc(I)cc4F)c(F)c3F)c2F)CC1` [Compound E-16, 3,4-Difluoro-2-(2-fluoro-4-iodoanilino)-5-[[2-fluoro-3-[(1-methylcyclopropyl)sulfonylamino]phenyl]methyl]benzamide], the pIC50 at MEK1 [3] was 6.45; on BRAF (read-out: BRAF IC50; Table 3) it was 7.92; in the data set with A549 it was 7.48; in the data set with Calu-6 it was 7.06; with NCI-H2122 it was 8.15. This compound yielded a microsomal CLint at 0.99 µM in data set [1] of less than 1 µL/min/mg.
Consider `CNS(=O)(=O)Nc1nccc(Oc2cc(C(N)=O)c(Nc3ccc(I)cc3F)c(F)c2F)c1F` [Compound H-4, 3,4-difluoro-2-(2-fluoro-4-iodoanilino)-5-[3-fluoro-2-(methylsulfamoylamino)pyridin-4-yl]oxybenzamide], for which the pIC50 on MEK1 [3] is 8.10; at BRAF (read-out: BRAF IC50; Table 3) it was 7.92; in the data set with A549 it was 8.05; in the data set with Calu-6 it was 8.22; in the data set on NCI-H2122, 9.00. This compound also came in with a microsomal CLint at 0.99 µM in data set [1] of 11 µL/min/mg.
In the case of `COCCS(=O)(=O)Nc1cccc(Cc2cc(C(N)=O)c(Nc3ccc(I)cc3F)c(F)c2F)c1F` [Compound D-5, 3,4-Difluoro-2-(2-fluoro-4-iodoanilino)-5-[[2-fluoro-3-(2-methoxyethylsulfonylamino)phenyl]methyl]benzamide], the pIC50 is 6.77 at MEK1 [3]; 8.15 at BRAF (read-out: BRAF IC50; Table 3); 8.00 in the data set with A549; 7.15 in the data set on Calu-6; 8.30 in the data set with NCI-H2122. Also, the microsomal CLint at 0.99 µM in data set [1] turned out to be 28 µL/min/mg.
For the compound `CCS(=O)(=O)Nc1cccc(Cc2cc(C(=O)NOC)c(Nc3ccc(I)cc3Cl)c(F)c2F)c1F` [Compound E-9, 2-(2-chloro-4-iodoanilino)-5-[[3-(ethylsulfonylamino)-2-fluorophenyl]methyl]-3,4-difluoro-N-methoxybenzamide], the pIC50 at MEK1 [3] was 7.02; at BRAF (read-out: BRAF IC50; Table 3) it was 7.96; in the data set with A549 it was 8.15; in the data set with Calu-6 it was 7.24; in the data set on NCI-H2122, 8.22. In data set [1], this compound registered a microsomal CLint at 0.99 µM of 13 µL/min/mg.
Turning to `CNS(=O)(=O)Nc1nccc(Cc2cc(C(N)=O)c(Nc3ccc(I)cc3F)c(F)c2F)c1F` [Compound A-25, 3,4-difluoro-2-(2-fluoro-4-iodoanilino)-5-[[3-fluoro-2-(methylsulfamoylamino)pyridin-4-yl]methyl]benzamide], the pIC50 was 8.30 on MEK1 [3]; 8.70 on BRAF (read-out: BRAF IC50; Table 3); 9.30 with A549; 8.70 in the data set on Calu-6; 9.70 with NCI-H2122. Further, the intrinsic metabolic clearance (microsomal CLint) at 0.99 µM in data set [1] came to 7 µL/min/mg.
